# Experimental data published in patent US5798375A, “Treatment of arteriosclerosis and xanthoma” (Sankyo Company, Limited, priority 1995, dated 1998).
# Assays:
# diabetic animal model = details: in vivo in a diabetic animal model; cited from earlier work
# [1] = Example 2: serum cholesterol in WHHL rabbits; format: in vivo, Male WHHL rabbits; details: Groups C and D (pioglitazone 20 mg/kg; Compound A 10 mg/kg)
# Protocol: (§1) Each test compound was administered for eight months to the rabbits in the form of an aqueous suspension (0.5% carboxymethylcellulose added). In the control group, a 0.5% carboxymethylcellulose solution only was administered.
# WHHL rabbits [2] = assay: Example 2: aortic cholesterol content; format: in vivo, Male WHHL rabbits
# Protocol: as §1
# The aortic cholesterol content was measured The tunica media and tunica intima at the aortic arch and at the thoracic and abdominal aorta were peeled away with tweezers and cut into pieces. The pieces were extracted with a 2:1 by volume mixture of chloroform and methanol.
# The chloroform phase was separated and evaporated to dryness and the residue was dissolved in isopropanol. The total cholesterol and the free cholesterol were measured by a conventional enzymatic method.
# Data are expressed by the mean plus or minus standard error (mg/g tissue). The values in parentheses indicate the percentage against the control. A significant difference against the control group was observed by the unpaired student t-test: […]
# WHHL rabbits [3] = assay: Example 2: percentage area covered by lesions, aortic arch and whole aorta; format: in vivo, Male WHHL rabbits; set-up: Lesion Area, Aortic Arch, percentage against the control group / Lesion Area, Total Aorta, percentage against the control group: concentration or dose not given beside the values; details: oral, eight months
# Protocol: as §1
# The values actually measured are represented by the mean value plus or minus standard error. The numbers in parentheses represent the percentage lesion area against the control group.
# *p<0.05, **p<0.01; significant difference against the control group under the [Mann-Whitney's U-Test A significant difference (p<0.05) was observed between Groups B and F, between Groups C and E and between Groups D and F at the aortic arch, and between Groups C and E over the total aorta.
# WHHL rabbits [4] = assay: Example 2: incidence and degree of xanthoma of the four legs; format: in vivo, Male WHHL rabbits; set-up: Frequency of massive xanthoma: unit not given here
# Protocol: as §1
# The incidence and the degree of xanthoma of the four legs were measured.
# [5] = system: Male New Zealand white rabbits; assay: Example 3: regression of established atherosclerotic lesions in the cholesterol-fed rabbit model; format: in vivo
# Protocol: The rabbits were grouped randomly (3-9 animals per group) and the test samples were administered orally for two months, while they were fed with a normolipidaemic diet. […] The results are shown in terms of the percentage of lesion area in the thoracic aorta.
# WHHL rabbits [6] = assay: Example 2: average thickening of intima in aorta; format: in vivo, Male WHHL rabbits; set-up: Average thickening of intima, Aortic Arch, percentage against the control group / Average thickening of intima, Total Aorta, percentage against the control group: concentration or dose not given beside the values
# Protocol: as §1
# The values actually measured are represented as the mean value plus or minus a standard error (μm). The numbers in parentheses represent the percentage intimal thickening against the control group. A significant difference was observed between Groups D and F at the aortic arch, and between Groups C and E and between Groups D and F over the total aorta (p<0.05) under the Mann-Whitney's U-Test.
# The average thickening of the intima is calculated by the cross-sectional area of the aortic tunica intima one section from the arch and two sections from the thoracic and abdominal portions, divided by the length of the tunica media.
# [7] = oral, eight months, control 100 (14/14), *p < 0.05, **p < 0.01 vs control
structure (smiles),measurement,setting,value
"CN(CCOc1ccc(CC2SC(=O)NC2=O)cc1)c1ccccn1 (stereo not shown) [BRL-49653, 5-{4-[2-methyl-2-(pyridin-2-ylamino)ethoxy]benzyl}-2,4-thiazolidinedione]",potency higher than that of troglitazone,diabetic animal model,about 100 times
"CC(=NOCCOc1ccc(CC2SC(=O)NC2=O)cc1)c1ccc(-c2ccccn2)cc1 (stereo not shown) [Compound A, 5-(4-{2-[1-(4-2'-pyridyl-phenyl)ethylideneaminooxy]ethoxy}benzyl)thiazolidine-2,4-dione]",reduction of the serum cholesterol levels,[1],no reduction
same,"Cholesterol level of Thoracic and Abdominal Aorta, Esterified","WHHL rabbits [2]; mean ± standard error, control 5.3 ± 1.7",4.9 ± 0.9 mg/g tissue
same,"Cholesterol Content of Aortic Arch, Esterified","WHHL rabbits [2]; mean ± standard error, control 6.5 ± 1.4, *p < 0.05",4.5 ± 1.3 mg/g tissue
same,"Cholesterol level of Thoracic and Abdominal Aorta, Free","WHHL rabbits [2]; mean ± standard error, control 14.8 ± 2.3, *p < 0.05 vs control",9.2 ± 1.0 mg/g tissue
same,"Cholesterol level of Thoracic and Abdominal Aorta, Total","WHHL rabbits [2]; mean ± standard error, control 20.1 ± 2.3, *p < 0.05, **p < 0.02 vs control",14.0 ± 1.7 mg/g tissue
same,"Cholesterol Content of Aortic Arch, Free","WHHL rabbits [2]; mean ± standard error, control 20.6 ± 2.9",16.9 ± 1.8 mg/g tissue
same,"Cholesterol Content of Aortic Arch, Total","WHHL rabbits [2]; mean ± standard error, control 27.1 ± 3.3",21.4 ± 0.7 mg/g tissue
same,"Cholesterol Content of Aortic Arch, Esterified, percentage against the control",WHHL rabbits [2]; number in parentheses,69%
same,"Cholesterol Content of Aortic Arch, Free, percentage against the control",WHHL rabbits [2]; number in parentheses,82%
same,"Cholesterol Content of Aortic Arch, Total, percentage against the control",WHHL rabbits [2]; number in parentheses,79%
same,"Cholesterol level of Thoracic and Abdominal Aorta, Esterified, percentage against the control",WHHL rabbits [2]; number in parentheses,92%
same,"Cholesterol level of Thoracic and Abdominal Aorta, Free, percentage against the control",WHHL rabbits [2]; number in parentheses,62%
same,"Cholesterol level of Thoracic and Abdominal Aorta, Total, percentage against the control",WHHL rabbits [2]; number in parentheses,70%
same,"Lesion Area, Aortic Arch, percentage against the control group",WHHL rabbits [3]; number in parentheses,77%
same,"Lesion Area, Total Aorta, percentage against the control group",WHHL rabbits [3]; number in parentheses,76%
same,"Lesion Area, Total Aorta","WHHL rabbits [3]; pravastatin 50, pioglitazone 20, Compound A 10 mg/kg, mean ± standard error, *p<0.05, **p<0.01 vs control",38 ± 8%
same,"Lesion Area, Aortic Arch","WHHL rabbits [3]; pravastatin 50, pioglitazone 20, Compound A 10 mg/kg, mean ± standard error, control 82 ± 5, *p<0.05, **p<0.01 vs control",63 ± 9%
same,Frequency of massive xanthoma,"WHHL rabbits [4]; control 57, *p < 0.05, **p < 0.01 vs control",21
same,incidence of xanthoma,WHHL rabbits [4]; forelegs and hindlegs,slightly less frequent incidence of xanthoma
same,Distribution of severity of lesion: (-) no lesions,"WHHL rabbits [4]; number of legs, control 0",3
same,Distribution of severity of lesion: (+++) severe lesion,"WHHL rabbits [4]; number of legs, control 6",0
same,Distribution of severity of lesion: (++) moderate lesion,"WHHL rabbits [4]; number of legs, control 10",6
same,Distribution of severity of lesion: (+) slight lesion,"WHHL rabbits [4]; number of legs, control 12",19
same,"Incidence of xanthoma, Forelegs",WHHL rabbits [4]; [7],93%
same,"Incidence of xanthoma, Hindlegs",WHHL rabbits [4]; [7],86%
same,"Incidence of xanthoma, Total","WHHL rabbits [4]; oral, eight months, control 100 (28/28), *p < 0.05, **p < 0.01 vs control",89%
same,"Rate of lesion area, against the control group","[5]; 2.5 mg/kg, figure in parentheses",93
same,Rate of lesion area,"[5]; thoracic aorta, 2.5 mg/kg oral, two months, mean ± standard error, control 29 ± 20",27 ± 7%
same,suppression of intimal thickening,WHHL rabbits [6]; combinations compared with Groups C and D,no suppression of hypertrophy
same,"Average thickening of intima, Aortic Arch, percentage against the control group",WHHL rabbits [6]; number in parentheses,123%
same,"Average thickening of intima, Total Aorta, percentage against the control group",WHHL rabbits [6]; number in parentheses,105%
same,"Average thickening of intima in aorta, Total Aorta","WHHL rabbits [6]; oral, eight months, pravastatin 50, pioglitazone 20, Compound A 10 mg/kg, mean ± standard error, control 154 ± 33",162 ± 22 μm
same,"Average thickening of intima in aorta, Aortic Arch","WHHL rabbits [6]; oral, eight months, pravastatin 50, pioglitazone 20, Compound A 10 mg/kg, mean ± standard error, control 237 ± 63",291 ± 51 μm
